# Where two headings read alike, the source gives them in different places. Peptide text beside a SMILES is read from it.
# Tests used:
# E. coli clin. isolate = type: cell-based, Escherichia coli
# Text: (§1) The American Type Culture Collection (ATCC, Rockville, MD, USA) strains and Escherichia coli MG1655 were used as standard bacterial strains. Gram-negative ATCC strains consisted of Escherichia coli (ATCC 25922), Pseudomonas aeruginosa (ATCC 27853), Acinetobacter baumannii (ATCC 19606), and Klebsiella pneumoniae (ATCC 13883). The only Gram-positive standard strain chosen for testing was Staphylococcus aureus (ATCC 29213). Clinical isolates with confirmed multidrug-resistance phenotype were obtained from different wards of the University Hospital Center, Split, Croatia. We described their origin, antibiograms, and resistance phenotype previously. In the same paper, we described the procedure for antimicrobial susceptibility testing on planktonic cells, using the microdilution method in 96-well microtiter plates.
# (§2) Briefly, cells were grown on agar plates and a single colony was sampled to generate a liquid culture (LC) grown overnight at 37 °C. The culture was sampled, resuspended in fresh medium, and allowed to grow at 37 °C, until reaching the mid-exponential phase. Lysogeny broth (LB) was used in the case of the E. coli MG1655 cells. Mueller Hinton (MH) medium was used for all other bacterial strains. Serial 2-fold dilutions of the peptide (64 μM to 0.0625 μM) were prepared from peptide stock solution in PBS, and added to a final load of 5 × 10^5 CFU/mL in 100 μL total volume of medium per well in a 96-well plate (Brand 781660). Bacterial cultures were incubated with peptides for 18 h to 24 h at 37 °C. The minimum inhibitory concentration (MIC) was defined as the lowest concentration of the peptide, at which no visible bacterial growth was observed. The MIC for each of the tested peptides was determined in at least three individual assays under the same laboratory conditions. […] At the end of the incubation period for MIC or MBC, the determination of the OD600 was analyzed.
# P. aerug. clin. isolate = type: cell-based, Pseudomonas aeruginosa
# Text: as §1, §2
# K. pneum. clin. isolate = type: cell-based, Klebsiella pneumoniae
# Text: as §1, §2
# [1] = system: Acinetobacter baumannii (ATCC 19606); type: cell-based
# Text: as §1, §2
# [2] = system: Escherichia coli (ATCC 25922); type: cell-based
# Text: as §1, §2
# Escherichia coli MG1655 = type: cell-based
# Text: as §1, §2
# [3] = system: Klebsiella pneumoniae (ATCC 13883); type: cell-based
# Text: as §1, §2
# [4] = system: Pseudomonas aeruginosa (ATCC 27853); type: cell-based
# Text: as §1, §2
# [5] = system: Staphylococcus aureus (ATCC 29213); type: cell-based
# Text: as §1, §2
# A. baum. clin. isolate = type: cell-based, Acinetobacter baumannii
# Text: as §1, §2
# S. aureus clin. isolate = type: cell-based, Staphylococcus aureus
# Text: as §1, §2
# human erythrocytes = test: Hemolysis of human erythrocytes; type: cell-based; settings: for HC10: concentration causing 10% hemolysis, 0.2% Triton = 100%; for HC10 / HC20 / HC50: 0.5% RBC in PBS, 1 h, 37 °C, absorbance 450 nm, triplicate; for HC20: concentration causing 20% hemolysis; for HC50: concentration causing 50% hemolysis
# Experimental: Fresh blood was obtained from a healthy donor. Blood was stored in a tube containing EDTA at 4 °C and used within 24 h. Before use, 1 mL of blood was centrifuged (400× g, 10 min), and the supernatant was discarded. Moreover, 500 μL cold PBS with EDTA (1 mM) was added, mixed and centrifuged. The supernatant was discarded. Furthermore, 500 μL of cold PBS with EDTA (1 mM) was added, from which a dilution of 1% blood was made. Peptides were prepared in PBS at a 2 × concentration in 100 µL. […] The suspension was incubated at 37 °C for 1 h and centrifuged at 10,000× g for 5 min. […] After centrifugation, the supernatant was added to a 96-well microtiter plate (150–180 μL), and the absorbance was measured at 450 nm, using EnSight Multimode Plate Reader (PerkinElmer, Inc.). Each measurement was done in triplicate. […] We opted to also include the extrapolated HC50 in our results, to permit comparisons with older toxicity results. However, the HC20 measurements were used for ranking the peptides according to their selectivity and overall performance (Figure 1 and Figure 2 and Table 2).
# [6] = system: human primary dermal fibroblasts; type: cell-based
# Experimental: (§3) Prostate cancer cells were donated by the University of Split, School of Medicine. Cells were cultured in RMPI-1640 medium, supplemented with 10% FBS, 1% Penicillin-Streptomycin, and 1% L-Glutamine. Human dermal fibroblasts were purchased from Biopredic (France) and cultured in DMEM medium, supplemented with 10% FBS and 1% Penicillin-Streptomycin. All cell lines were maintained in a humidified incubator with 5% CO2 at 37 °C. Cells were detached using the trypsin-EDTA solution and sub-cultured (7000 cells/well) in a 96-well plate overnight. Peptide stock solutions were prepared in PBS, and cancer cells were treated with 2-fold serial dilutions for 24 h at 37 °C, with 5% CO2. The toxicity of 6 selected peptides was assessed by a standard MTT assay. Treated cells were incubated with MTT working solution (0.5 mg/mL Thiazolyl Blue Tetrazolium Bromide) for 4 h at 37 °C with 5% CO2. Precipitated formazan was dissolved in 200 µL DMSO and absorbance was measured at 595 nm with EnSight Multimode Plate Reader (PerkinElmer, Inc.)
# [7] = system: PC-3 prostate cancer cell line; type: cell-based, human
# Experimental: as §3
# [8] = multidrug-resistant clinical isolate, broth microdilution, MH medium, 18-24 h, 37 °C
# [9] = broth microdilution, MH medium, 5 × 10^5 CFU/mL, 18-24 h, 37 °C
SMILES,HC10 (human erythrocytes) [µM],HC20 (human erythrocytes) [µM],HC50 (human erythrocytes) [µM],MIC (E. coli clin. isolate) (E. coli clin. isolate; clin. isolate) [µM],MIC (P. aerug. clin. isolate) (P. aerug. clin. isolate) [µM],MIC (K. pneum. clin. isolate) (K. pneum. clin. isolate) [µM],MIC (A. baum. ATCC 19606) ([1]; ATCC 19606) [µM],MIC (E. coli ATCC 25922) ([2]; ATCC 25922) [µM],MIC (E. coli MG1655) (Escherichia coli MG1655; MG1655) [µM],MIC (K. pneum. ATCC 13883) ([3]; ATCC 13883) [µM],MIC (P. aerug. ATCC 27853) ([4]; ATCC 27853) [µM],MIC (S. aureus ATCC 29213) ([5]; ATCC 29213) [µM],"PEa(20) = SI/MIC(aureus) ([5]; ATCC 29213, 18 h) [µM⁻¹]",MIC (A. baum. clin. isolate) (A. baum. clin. isolate) [µM],MIC (S. aureus clin. isolate) (S. aureus clin. isolate; clin. isolate) [µM],IC50 ([6]; 24 h) [µM],(TI/ IC50C) vs. MP1 ([7]; 24 h),IC50 ([7]; 24 h) [µM],TI (HC20/IC20C) ([7]; 24 h),TI (IC50F/IC50C) ([7]; 24 h),other results
CC[C@H](C)[C@H](NC(=O)[C@H](CCCCN)NC(=O)[C@H](CCCCN)NC(=O)CNC(=O)[C@@H](NC(=O)[C@@H](N)CCCCN)[C@@H](C)CC)C(=O)N[C@@H](CC(C)C)C(=O)N[C@@H](CCCCN)C(=O)N[C@@H](C)C(=O)N[C@@H](CC(C)C)C(=O)N[C@@H](CCCCN)C(=O)NCC(=O)N[C@@H](C)C(=O)N[C@@H](CC(C)C)C(=O)N[C@@H](CCCCN)C(=O)N[C@@H](CCC(=O)O)C(=O)N[C@@H](CC(C)C)C(=O)N[C@@H](C)C(N)=O [MAPA] (H-KIGKKILKALKGALKELA-NH2),1.7,3,20,–,–,–,–,–,–,–,–,–,–,–,–,–,–,–,–,–,"MIC (E. coli clin. isolate) (E. coli clin. isolate; multidrug-resistant clinical isolate, broth microdilution, MH medium, 5 × 10^5 CFU/mL, 18-24 h, 37 °C): 8 to 16 µM; MIC (P. aerug. clin. isolate) (P. aerug. clin. isolate; [8]): 32 µM; MIC (K. pneum. clin. isolate) (K. pneum. clin. isolate; [8]): 8 µM; MIC (A. baum. ATCC 19606) [1, 9]: 1 to 2 µM; MIC (E. coli ATCC 25922) ([2]; broth microdilution, MH medium, 5 × 10^5 CFU/mL, 18-24 h, 37 °C, at least three assays): 1 to 2 µM; MIC (E. coli MG1655) (Escherichia coli MG1655; broth microdilution, LB medium, 5 × 10^5 CFU/mL, 18-24 h, 37 °C, at least three assays): 4 µM; MIC (K. pneum. ATCC 13883) [3, 9]: 8 µM; MIC (P. aerug. ATCC 27853) [4, 9]: 32 to 64 µM; MIC (S. aureus ATCC 29213) [5, 9]: 0.5 µM; PEa(20) = SI/MIC(aureus) ([5]; overall performance, product of SI (20) and 1/MIC, S. aureus ATCC 29213): 12 µM⁻¹; MIC (A. baum. clin. isolate) (A. baum. clin. isolate; [8]): 4 µM; MIC (S. aureus clin. isolate) (S. aureus clin. isolate; [8]): 8 µM; IC50 ([6]; MTT assay, 7000 cells/well, 24 h treatment, 37 °C, 5% CO2, absorbance 595 nm, read-out: IC50F (Fibroblasts)): 25 µM; IC50 ([7]; MTT assay, 7000 cells/well, 24 h treatment, 37 °C, 5% CO2, absorbance 595 nm, read-out: IC50C (PC-3)): 8 µM; TI (HC20/IC20C) ([7]; human erythrocytes vs PC-3): 1; TI/ IC50C ([7]; performance, product of TI and anticancer activity (1/IC50C)): 0.39; (TI/ IC50C) vs. MP1 ([7]; relative performance with respect to MP1 control peptide): 9.3; TI (IC50F/IC50C) ([7]; therapeutic index, fibroblasts vs PC-3): 3.1"
CC[C@H](C)[C@H](NC(=O)[C@H](CCCNC(=N)N)NC(=O)[C@H](C)NC(=O)[C@H](Cc1ccc(O)cc1)NC(=O)[C@H](CCCNC(=N)N)NC(=O)[C@H](CCCNC(=N)N)NC(=O)[C@H](Cc1c[nH]c2ccccc12)NC(=O)[C@H](Cc1c[nH]cn1)NC(=O)[C@H](Cc1c[nH]cn1)NC(=O)[C@@H](N)CCCNC(=N)N)C(=O)NCC(=O)N[C@@H](Cc1ccccc1)C(=O)N[C@@H](CCCNC(=N)N)C(=O)N[C@@H](C)C(=O)N[C@H](C(=O)N[C@@H](CCCNC(=N)N)C(=O)N[C@H](C(=O)N[C@H](C(=O)N[C@H](C(=O)NCC(=O)N[C@@H](CCCCN)C(N)=O)[C@@H](C)CC)C(C)C)[C@@H](C)O)C(C)C [T2R1] (H-RHHWRRYARIGFRAVRTVIGK-NH2),3,25,–,4,8,2 to 4,2,1,4,2,1,0.5,100,8,4,80,30,8,5,10,"HC50 * (extrapolated) (human erythrocytes; extrapolated, all concentrations tested lysed less than 50% of cells): 7000 * µM; TI/ IC50C ([7]; 24 h): 1.25"
CC[C@H](C)[C@H](NC(=O)[C@H](CCCNC(=N)N)NC(=O)[C@H](C)NC(=O)[C@H](Cc1ccc(O)cc1)NC(=O)[C@H](CCCNC(=N)N)NC(=O)[C@H](CCCNC(=N)N)NC(=O)[C@H](Cc1c[nH]c2ccccc12)NC(=O)[C@H](Cc1c[nH]cn1)NC(=O)[C@@H](N)Cc1c[nH]cn1)C(=O)NCC(=O)N[C@@H](Cc1ccccc1)C(=O)N[C@@H](CCCNC(=N)N)C(=O)N[C@@H](C)C(=O)N[C@H](C(=O)N[C@@H](CCCNC(=N)N)C(=O)N[C@H](C(=O)N[C@H](C(=O)N[C@H](C(=O)NCC(=O)N[C@@H](CCCCN)C(N)=O)[C@@H](C)CC)C(C)C)[C@@H](C)O)C(C)C [T2] (H-HHWRRYARIGFRAVRTVIGK-NH2),1.4,3,28,8,32,8,1,0.5 to 1,>32,4,4,1,3,8,4,35,8.4,10,1,3.5,TI/ IC50C ([7]; 24 h): 0.35
